System: P. aeruginosa
Format: cell-based

## KWKSFIKKLTSAAKKVVTTAKPLISS [MBI 26]
P. aeruginosa PA024, pair Ceftriaxone / MBI 26
  MIC in combination: 32 mg/L
P. aeruginosa PA041, agent alone
  MIC Alone: 64 mg/L
P. aeruginosa PA041, in combination with erythromycin
  MBI 26 MIC, +Erythro.: 32 mg/L
